Data on 18 compounds can be found in PubChem BioAssay AID328 (DTP/NCI, 2004).

The assay deals with BDF1 mice, P388 leukemia ip, median survival T/C. As to the kind of experiment: NCI In Vivo Anticancer Drug Screen. Data for tumor model P388 Leukemia (intraperitoneal) in B6D2F1 (BDF1) mice. As to conditions: endpoint: median survival time, higher = longer survival. Put shortly:
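Antitumour effect was judged in vivo: survival in drug-treated mice, normalised to that of vehicle-dosed controls, gives the reported T/C.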

The mark [1] stands for this setting: dose: 25.0 mg/kg/injection, schedule: Q01DX009 (ip), vehicle: saline with Tween-80.
Setting [2] is: dose: 50.0 mg/kg/injection, schedule: Q01DX009 (ip), vehicle: saline with Tween-80.
[3] abbreviates: dose: 100.0 mg/kg/injection, schedule: Q01DX009 (ip), vehicle: saline with Tween-80.
Setting [4] is: dose: 200.0 mg/kg/injection, schedule: Q04DX003 (ip), vehicle: Klucel (hydroxypropylcellulose) (HPC).
Setting [5] is: dose: 400.0 mg/kg/injection, schedule: Q04DX003 (ip), vehicle: Klucel (hydroxypropylcellulose) (HPC).
Setting [6] is: dose: 25.0 mg/kg/injection, schedule: Q04DX003 (ip), vehicle: saline.
Setting [7] is: dose: 50.0 mg/kg/injection, schedule: Q04DX003 (ip), vehicle: saline.
[8] abbreviates: dose: 100.0 mg/kg/injection, schedule: Q01DX009 (ip), vehicle: saline.
[9] abbreviates: dose: 200.0 mg/kg/injection, schedule: Q01DX009 (ip), vehicle: saline.
Where [10] appears, read: dose: 25.0 mg/kg/injection, schedule: Q04DX003 (ip), vehicle: saline with Tween-80.
[11] abbreviates: dose: 50.0 mg/kg/injection, schedule: Q04DX003 (ip), vehicle: saline with Tween-80.
Where [12] appears, read: dose: 100.0 mg/kg/injection, schedule: Q04DX003 (ip), vehicle: saline with Tween-80.
Setting [13] is: dose: 100.0 mg/kg/injection, schedule: Q01DX009 (ip), vehicle: Klucel (hydroxypropylcellulose) (HPC).
Setting [14] is: dose: 200.0 mg/kg/injection, schedule: Q01DX009 (ip), vehicle: Klucel (hydroxypropylcellulose) (HPC).
The mark [15] stands for this setting: dose: 400.0 mg/kg/injection, schedule: Q01DX009 (ip), vehicle: Klucel (hydroxypropylcellulose) (HPC).

Values joined by “and” are separate entries in the source; they are usually repeats but may differ in a detail not shown here. Equal entries are not always repeated. Inconclusive results and toxic doses are left out.

In the case of `CC(=O)OCC(=O)[C@@]1(O)CC[C@H]2[C@@H]3CCC4=CC(=O)C=C[C@]4(C)[C@H]3C(=O)C[C@@]21C`, the T/C under setting [1] is 109 % of control; the T/C under setting [2] is 122 % of control; the T/C (dose: 63.75 mg/kg/injection, schedule: Q01DX009 (ip), vehicle: Klucel (hydroxypropylcellulose) (HPC)) is 113 % of control; the T/C under setting [3] was 118 % of control; the T/C (dose: 100.0 mg/kg/injection, schedule: Q04DX003 (ip), vehicle: Klucel (hydroxypropylcellulose) (HPC)) is 100 % of control; the T/C (dose: 127.5 mg/kg/injection, schedule: Q01DX009 (ip), vehicle: Klucel (hydroxypropylcellulose) (HPC)) is 122 % of control. Also, the T/C is 104 % of control under setting [4]; 100 % of control (dose: 255.0 mg/kg/injection, schedule: Q01DX009 (ip), vehicle: Klucel (hydroxypropylcellulose) (HPC)); 104 % of control under setting [5].

Turning to `C/C(CCCCl)=N/NC(N)=S`, the T/C by setting is: (dose: 75.0 mg/kg/injection, schedule: Q01DX009 (ip), vehicle: saline) 86 % of control; (dose: 115.0 mg/kg/injection, schedule: Q01DX009 (ip), vehicle: saline) 86 % of control.

For the compound `S=c1c(S)c(S)c1=S`, the T/C reads like this: (dose: 100.0 mg/kg/injection, schedule: Q04DX002 (ip), vehicle: saline) 100 % of control; (dose: 200.0 mg/kg/injection, schedule: Q04DX002 (ip), vehicle: saline) 100 % of control; (dose: 400.0 mg/kg/injection, schedule: Q04DX002 (ip), vehicle: saline) 100 % of control.

Take `ClC12CC3CC(CC(C3)C1)C2`: the T/C runs as follows: (dose: 50.0 mg/kg/injection, schedule: Q04DX003 (ip), vehicle: acetone) 104 % of control; (dose: 100.0 mg/kg/injection, schedule: Q04DX003 (ip), vehicle: acetone) 113 % of control; (dose: 200.0 mg/kg/injection, schedule: Q04DX003 (ip), vehicle: acetone) 109 % of control.

On to `COc1ccc2c(c1)CCNC2CCO` (stereo not given), for which the T/C reads like this: under setting [6], 120 % of control; under setting [7], 110 % of control; (dose: 100.0 mg/kg/injection, schedule: Q04DX003 (ip), vehicle: saline) 120 % of control.

As to `NC1=C(Cl)C(=O)C(Cl)=C(Cl)C1=O`, the T/C runs as follows: (dose: 0.39 mg/kg/injection, schedule: Q01DX009 (ip), vehicle: saline) 102 % of control; (dose: 0.78 mg/kg/injection, schedule: Q01DX009 (ip), vehicle: saline) 98 % of control; (dose: 1.56 mg/kg/injection, schedule: Q01DX009 (ip), vehicle: saline) 99 % of control.

Take `O=P(N1CCCCCC1)(N1CC1)N1CC1`: the T/C is, setting by setting: (dose: 5.0 mg/kg/injection, schedule: Q01DX009 (ip), vehicle: saline) 168 % of control; (dose: 6.25 mg/kg/injection, schedule: Q04DX003 (ip), vehicle: saline) 95 % of control; (dose: 7.0 mg/kg/injection, schedule: Q04DX003 (ip), vehicle: saline) 112 % of control; (dose: 8.0 mg/kg/injection, schedule: Q01DX009 (ip), vehicle: saline) 157 % of control and 222 % of control; (dose: 11.0 mg/kg/injection, schedule: Q04DX003 (ip), vehicle: saline) 150 % of control; (dose: 16.5 mg/kg/injection, schedule: Q04DX003 (ip), vehicle: saline) 180 % of control. Moreover, the T/C by setting is: (dose: 17.0 mg/kg/injection, schedule: Q04DX003 (ip), vehicle: saline) 166 % of control and 181 % of control; under setting [6], 218 % of control [middle of 4 runs]; under setting [7], 162 % of control.

For the compound `CC(=O)c1ccc[n+](C)c1`, the T/C under setting [8] is 100 % of control and the T/C under setting [9] was 95 % of control.

Turning to `COC(=O)C1CCN(Cc2c[nH]c3ccccc23)CC1`, the T/C reads like this: (dose: 12.5 mg/kg/injection, schedule: Q04DX003 (ip), vehicle: saline with Tween-80) 96 % of control; under setting [10], 96 % of control; under setting [11], 111 % of control; under setting [12], 102 % of control.

Regarding `COc1ccc(/C=C2\CCC3C(CCCC34OCCO4)C2=O)cc1` (stereo not given), the T/C is, setting by setting: (dose: 45.0 mg/kg/injection, schedule: Q01DX009 (ip), vehicle: Klucel (hydroxypropylcellulose) (HPC)) 104 % of control; under setting [2], 100 % of control; (dose: 65.0 mg/kg/injection, schedule: Q01DX009 (ip), vehicle: Klucel (hydroxypropylcellulose) (HPC)) 95 % of control; under setting [13], 118 % of control; under setting [3], 104 % of control; (dose: 100.0 mg/kg/injection, schedule: Q04DX003 (ip), vehicle: other) 91 % of control. Also, the T/C (dose: 150.0 mg/kg/injection, schedule: Q01DX009 (ip), vehicle: Klucel (hydroxypropylcellulose) (HPC)) was 90 % of control; the T/C under setting [14] was 100 % of control; the T/C (dose: 200.0 mg/kg/injection, schedule: Q01DX009 (ip), vehicle: saline with Tween-80) is 96 % of control; the T/C (dose: 200.0 mg/kg/injection, schedule: Q04DX003 (ip), vehicle: other) is 108 % of control; the T/C under setting [15] is 95 % of control; the T/C (dose: 400.0 mg/kg/injection, schedule: Q04DX003 (ip), vehicle: other) is 95 % of control.

Regarding `CCOC(=O)C(=NN(C)C)C(=O)OCC`, the T/C reads like this: (dose: 50.0 mg/kg/injection, schedule: Q01DX009 (ip), vehicle: saline) 104 % of control; under setting [8], 92 % of control; under setting [9], 101 % of control.

For the compound `CC(=N\O)/C(C)=N/O.CC(=N\O)/C(C)=N/O.[Cu]`, the T/C was 100 % of control (dose: 3.0 mg/kg/injection, schedule: Q01DX009 (ip), vehicle: Klucel (hydroxypropylcellulose) (HPC)); 118 % of control (dose: 6.25 mg/kg/injection, schedule: Q04DX003 (ip), vehicle: Klucel (hydroxypropylcellulose) (HPC)); 118 % of control (dose: 12.5 mg/kg/injection, schedule: Q04DX003 (ip), vehicle: Klucel (hydroxypropylcellulose) (HPC)).

For the compound `CN(c1ccccc1)P(=O)(N1CC1)N1CC1`, the T/C is 172 % of control under setting [10] and 250 % of control (dose: 37.5 mg/kg/injection, schedule: Q04DX003 (ip), vehicle: saline with Tween-80).

On to `CC(C)CNC(=O)C12CC3CC(CC(C3)C1)C2`, for which the T/C was 104 % of control (dose: 12.5 mg/kg/injection, schedule: Q01DX009 (ip), vehicle: saline with Tween-80); 107 % of control under setting [1]; 104 % of control under setting [2]; 101 % of control under setting [3].

Consider `O=C(CN1CCOCC1)Nc1nc(-c2ccc(Cl)cc2)cs1`, for which the T/C was 110 % of control (dose: 50.0 mg/kg/injection, schedule: Q01DX005 (ip), vehicle: saline with Tween-80) and 91 % of control (dose: 100.0 mg/kg/injection, schedule: Q01DX005 (ip), vehicle: saline with Tween-80).

On to `CC(=O)Nc1cc(C)cc(CO)c1C`, for which the T/C under setting [10] was 86 % of control; the T/C under setting [11] is 96 % of control; the T/C under setting [12] is 93 % of control; the T/C (dose: 200.0 mg/kg/injection, schedule: Q04DX003 (ip), vehicle: saline with Tween-80) is 88 % of control.

With `COc1ccc(/C=C(C(=O)O)/C(=C/c2ccc(OC)c(OC)c2)C(=O)O)cc1OC`, the T/C is 100 % of control under setting [13]; 109 % of control under setting [14]; 95 % of control under setting [4]; 95 % of control under setting [15]; 112 % of control under setting [5].

Consider `Cn1ccn(C2CCCCC2)c1=O`, for which the T/C is, setting by setting: under setting [10], 95 % of control; under setting [11], 100 % of control.
